Test results: PubChem BioAssay (NCI)
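Results reflect a 48-hour exposure of cells in 96-well plates to compound at five concentrations. At the GI50, growth is halved. TGI: total growth inhibition.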

What follows are compounds tested on KM20L2 colon (assay: NCI tumour cell line growth inhibition, 48 h).

SMILES	GI50	TGI
[Cl-].[Dy+3].[O-]/N=C(\c1ccccc1)c1ccccn1.[O-]/N=C(\c1ccccc1)c1ccccn1.[O-]/N=C(\c1ccccc1)c1ccccn1	42 µM	> 100 µM
Cc1cc2c(cc1C)[n+](=O)c(C(=O)C/C(=N/NC(=O)CC#N)C(=O)Nc1ccccc1C(F)(F)F)c(C)n2[O-]	–	> 100 µM
COC(=O)/C(=N/NC(=O)C[N+](C)(C)C)C(C(=O)OC)C(=O)C(=O)Nc1ccc(F)cc1 (stereo not drawn)	–	> 100 µM
O=C(c1ccccc1)c1nnc(C(=O)c2ccccc2)nn1	–	> 344 µM
Brc1cccc(C=NC23CC4CC(CC(C4)C2)C3)c1	–	> 100 µM
CC[CH2][Sn]([CH2]CC)([O]C(=O)c1cccnc1SC)[O][Sn]([CH2]CC)([CH2]CC)[O]C(=O)c1cccnc1SC	0.775 µM	2.11 µM
CCC[CH2][Sn]([CH2]CCC)([O]C(=O)c1cccnc1SC)[O]C(=O)c1cccnc1SC	1.7 µM	3.51 µM
O=C1O[C@@H](c2ccc3c(c2)OCO3)C2C(=O)O[C@@H](c3ccc4c(c3)OCO4)C12 (stereo partly drawn)	–	> 100 µM
O=C1CCC(=O)N2CCCCN12	–	> 100 µM
CC(C)C(=O)NC(=S)Nc1ccc([N+](=O)[O-])cc1C#N	–	> 100 µM
C/C(CC(=O)Nc1cc(Cl)c(Cl)cc1Cl)=N\NC(N)=O	–	> 100 µM
N#Cc1cc([N+](=O)[O-])ccc1NC(=O)C(=O)Nc1n[nH]c(N)n1	–	> 100 µM
O=C(/C=C/c1c(O)ccc2ccccc12)c1cccc(O)c1	–	> 100 µM
CC1=NN(C(=O)Nc2ccccc2)C(=O)C2CCC(=O)N12 (stereo not drawn)	–	> 100 µM
COC(=O)C1Cc2c(n(Cc3ccccc3)c3ccccc23)C(CCC(=O)O)N1C(C)C (stereo not drawn)	–	> 100 µM
O=C(O)CNS(=O)(=O)c1ccc(NCc2ccccc2)cc1	–	> 100 µM
CC(C)(C)C1C=C(Sc2ccccc2)C(=O)O1 (stereo not drawn)	–	> 100 µM
CCC[CH2][Sn]1([CH2]CCC)[O]Cc2nc(C)ccc2[O]1	10.9 µM	23.6 µM
O=c1/c(=C/c2ccco2)sc2nc3ccccc3n12	–	> 10 µM
O=C1CCC2(c3ccc(F)cc3)Nc3cc(Cl)ccc3N12 (stereo not drawn)	–	> 100 µM
C/C(CC(=O)Nc1ccc(C)cc1C)=N/N=C(N)N	–	> 100 µM

The compounds below were run on RXF-631 renal (assay: NCI tumour cell line growth inhibition, 48 h).

SMILES	TGI	GI50
NC(CCC(=O)NC(CSSCCCCS(=O)O)C(=O)NCC(=O)O)C(=O)O (stereo not drawn)	> 100 µM	–
O=c1c2cc([N+](=O)[O-])ccc2sc2ccsc12	> 100 µM	–
Cc1cc2c(cc1C)[n+](=O)c(C(=O)C/C(=N/NC(=O)CC#N)C(=O)Nc1ccccc1C(F)(F)F)c(C)n2[O-]	33.3 µM	–
COC(=O)/C(=N/NC(=O)C[N+](C)(C)C)C(C(=O)OC)C(=O)C(=O)Nc1ccc(F)cc1 (stereo not drawn)	> 100 µM	–
O=C1O[C@@H](c2ccc3c(c2)OCO3)C2C(=O)O[C@@H](c3ccc4c(c3)OCO4)C12 (stereo partly drawn)	> 100 µM	–
O=C1CCC(=O)N2CCCCN12	> 100 µM	–
CC(C)C(=O)NC(=S)Nc1ccc([N+](=O)[O-])cc1C#N	> 100 µM	–
C/C(CC(=O)Nc1cc(Cl)c(Cl)cc1Cl)=N\NC(N)=O	> 100 µM	–
N#Cc1cc([N+](=O)[O-])ccc1NC(=O)C(=O)Nc1n[nH]c(N)n1	> 100 µM	–
CC1=NN(C(=O)Nc2ccccc2)C(=O)C2CCC(=O)N12 (stereo not drawn)	> 100 µM	–
COC(=O)C1Cc2c(n(Cc3ccccc3)c3ccccc23)C(CCC(=O)O)N1C(C)C (stereo not drawn)	> 100 µM	–
O=c1/c(=C/c2ccco2)sc2nc3ccccc3n12	> 100 µM	> 100 µM
C/C(CC(=O)Nc1ccc(C)cc1C)=N/N=C(N)N	> 100 µM	–

Each compound was assayed on M19-MEL melanoma (assay: NCI tumour cell line growth inhibition, 48 h).

SMILES	TGI	GI50
COC(=O)c1c/c(=N\NC(=O)CC(=O)Nc2ccccc2OC)c2ccccc2o1	> 100 µM	–
NC(CCC(=O)NC(CSSCCCCS(=O)O)C(=O)NCC(=O)O)C(=O)O (stereo not drawn)	> 100 µM	–
COC12C=C(C)C(CC1)CC2C(=O)O (stereo not drawn)	> 100 µM	–
OCC(O)CC[CH2][Sn]([Br])([c]1ccccc1)[c]1ccccc1 (stereo not drawn)	> 100 µM	> 100 µM
CCc1ccc(/C=C\c2cc(OC)c(OC)c(OC)c2)cc1	> 100 µM	0.0392 µM
O=c1c2cc([N+](=O)[O-])ccc2sc2ccsc12	> 100 µM	–
COc1ccc(/C=C/CN(C)CCc2ccccc2)cc1OC	> 100 µM	–
[Cl-].[Dy+3].[O-]/N=C(\c1ccccc1)c1ccccn1.[O-]/N=C(\c1ccccc1)c1ccccn1.[O-]/N=C(\c1ccccc1)c1ccccn1	94.6 µM	31.3 µM
NC(=O)C(=O)N/N=C(\CC1(O)C(=O)Nc2ccccc21)c1ccc2ccccc2c1 (stereo not drawn)	65.6 µM	–
Cc1cc2c(cc1C)[n+](=O)c(C(=O)C/C(=N/NC(=O)CC#N)C(=O)Nc1ccccc1C(F)(F)F)c(C)n2[O-]	> 100 µM	–
COC(=O)/C(=N/NC(=O)C[N+](C)(C)C)C(C(=O)OC)C(=O)C(=O)Nc1ccc(F)cc1 (stereo not drawn)	> 100 µM	–
O=C(c1ccccc1)c1nnc(C(=O)c2ccccc2)nn1	> 344 µM	–
Brc1cccc(C=NC23CC4CC(CC(C4)C2)C3)c1	> 100 µM	–
CC[CH2][Sn]([CH2]CC)([O]C(=O)c1cccnc1SC)[O][Sn]([CH2]CC)([CH2]CC)[O]C(=O)c1cccnc1SC	0.337 µM	0.0833 µM
CCC[CH2][Sn]([CH2]CCC)([O]C(=O)c1cccnc1SC)[O]C(=O)c1cccnc1SC	1.57 µM	0.36 µM
O=C1O[C@@H](c2ccc3c(c2)OCO3)C2C(=O)O[C@@H](c3ccc4c(c3)OCO4)C12 (stereo partly drawn)	> 100 µM	–
O=C1CCC(=O)N2CCCCN12	> 100 µM	–
CC(C)C(=O)NC(=S)Nc1ccc([N+](=O)[O-])cc1C#N	> 100 µM	–
C/C(CC(=O)Nc1cc(Cl)c(Cl)cc1Cl)=N\NC(N)=O	> 100 µM	–
